This is an account of results in publication PMC7615677 (Science translational medicine, 2023).

Like-named read-outs stand apart in the source and are kept apart here.

The nature of series [1]: In vitro metabolism, cryopreserved hepatocytes. It is filed as in vitro ADME, mouse. Here is the method:
Cell viability was determined using trypan blue exclusion. The incubation was performed on a plate shaker (Heidolph Titrimax 100, 900 rpm) placed in a humidified incubator (37°C, 7.5% CO2) for 240 min. The reaction was initiated with the addition of compound with samples taken periodically and quenched with the addition of acetonitrile containing internal standards (metolazone and diazepam). Quenched samples were maintained on ice for approximately 20-30 min, centrifuged (for 5 min) and the supernatant analyzed by LC-MS.
In vitro intrinsic clearance (CLint, μL/min/mg or μL/min/10^6 cells) values were calculated from the apparent first order degradation rate constant divided by the microsome concentration or the hepatocyte cell number (10^6 viable cells/mL). In vitro CLint values were then divided by the fraction unbound in the in vitro test system (to give CLint,u) and scaled to in vivo values (mL/min/kg) using published physiological scaling factors ([28]). Blood clearance in each species was then calculated using the well-stirred model of hepatic extraction (equation 2) where Q is the hepatic blood flow and fu,blood is calculated from fu,plasma/B:P: [2] PredictedCLblood=Q x fu,blood x CLint,u/Q+fu,blood x CLint,u
Blood clearance values were converted to plasma clearance by multiplying by the B:P.

For another series, the target named is T1, CYP1A2 (Homo sapiens, UniProt P05177).
T1 construct: incubation of isoform-specific substrates with human liver microsomes; from tissue; host or cells: human liver microsomes
T1 sequence (P05177 1-516): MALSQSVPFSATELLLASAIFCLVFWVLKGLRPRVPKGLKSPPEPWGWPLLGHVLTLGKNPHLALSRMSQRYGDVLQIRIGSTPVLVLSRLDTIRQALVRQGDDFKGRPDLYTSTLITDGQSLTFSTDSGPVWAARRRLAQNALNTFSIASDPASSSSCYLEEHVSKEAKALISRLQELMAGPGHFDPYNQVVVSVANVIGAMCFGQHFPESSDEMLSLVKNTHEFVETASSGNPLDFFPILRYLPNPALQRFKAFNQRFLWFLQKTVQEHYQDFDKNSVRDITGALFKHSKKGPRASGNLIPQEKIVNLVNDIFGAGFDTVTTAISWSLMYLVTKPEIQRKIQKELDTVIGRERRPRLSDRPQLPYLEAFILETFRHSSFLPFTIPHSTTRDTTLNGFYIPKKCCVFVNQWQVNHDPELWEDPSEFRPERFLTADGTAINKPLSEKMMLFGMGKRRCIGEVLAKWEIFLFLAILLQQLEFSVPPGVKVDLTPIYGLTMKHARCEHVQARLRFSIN
Description: Cytochrome P450 inhibition, human liver microsomes. In kind it is in vitro ADME. On the procedure: (§1) Direct CYP inhibition studies were conducted using conditions described previously ([43]) following incubation of isoform-specific substrates with human liver microsomes. The formation of known metabolites mediated by a specific CYP isoform was monitored. CYP isoform-specific pathways (and positive control inhibitors) included CYP1A2: phenacetin O-deethylation (furafylline), CYP2B6: bupropion hydroxylation (PPP), CYP2C8: amodiaquine deethylation (quercetin) CYP2C9: tolbutamide methylhydroxylation (sulfaphenazole), CYP2C19: (S)-mephenytoin 4’-hydroxylation (ticlopidine), CYP2D6: dextromethorphan O-demethylation (quinidine), and CYP3A: midazolam 1’-hydroxylation and testosterone 6β-hydroxylation (ketoconazole). […] The organic solvent content was maintained at less than 1% (v/v). NADPH was added to initiate the reaction which was then quenched by the addition of acetonitrile containing internal standard at specified times. Concentrations of the isoform-specific metabolites were quantified by LC-MS (Waters Xevo TQD triple quadrupole MS coupled to a Waters Acquity UPLC system) relative to calibration standards prepared in pre-quenched microsomal matrix.
(§2) Time dependent inhibition was assessed using an “IC50 shift” method based on a previous publication ([44]). […] A shift in the IC50 in the presence of NADPH (relative to the absence) was used as an indication of time dependent inhibition. Reference direct and time-dependent inhibitors were included in the assays.

In another series the target is T2, CYP2B6 (Homo sapiens, UniProt P20813).
T2 construct: incubation of isoform-specific substrates with human liver microsomes; from tissue; host or cells: human liver microsomes
T2 sequence (P20813 1-491): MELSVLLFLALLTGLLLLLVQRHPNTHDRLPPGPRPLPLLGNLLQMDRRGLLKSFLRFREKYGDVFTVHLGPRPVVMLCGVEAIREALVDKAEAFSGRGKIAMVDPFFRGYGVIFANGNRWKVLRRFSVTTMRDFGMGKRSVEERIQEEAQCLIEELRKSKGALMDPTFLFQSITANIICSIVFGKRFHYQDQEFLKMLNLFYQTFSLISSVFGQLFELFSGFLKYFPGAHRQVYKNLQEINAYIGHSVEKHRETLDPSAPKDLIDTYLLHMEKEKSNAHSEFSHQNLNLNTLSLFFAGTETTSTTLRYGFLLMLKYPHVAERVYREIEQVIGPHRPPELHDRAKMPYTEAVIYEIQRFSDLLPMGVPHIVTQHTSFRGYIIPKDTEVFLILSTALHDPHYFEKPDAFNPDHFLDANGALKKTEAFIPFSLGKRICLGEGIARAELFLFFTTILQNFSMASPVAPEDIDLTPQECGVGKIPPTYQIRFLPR
Kind of series: Cytochrome P450 inhibition, human liver microsomes. In kind it is in vitro ADME. On the procedure:
as §1, §2

The next series addresses T3, CYP2C8 (Homo sapiens, UniProt P10632).
T3 construct: incubation of isoform-specific substrates with human liver microsomes; from tissue; host or cells: human liver microsomes
T3 sequence (P10632 1-490): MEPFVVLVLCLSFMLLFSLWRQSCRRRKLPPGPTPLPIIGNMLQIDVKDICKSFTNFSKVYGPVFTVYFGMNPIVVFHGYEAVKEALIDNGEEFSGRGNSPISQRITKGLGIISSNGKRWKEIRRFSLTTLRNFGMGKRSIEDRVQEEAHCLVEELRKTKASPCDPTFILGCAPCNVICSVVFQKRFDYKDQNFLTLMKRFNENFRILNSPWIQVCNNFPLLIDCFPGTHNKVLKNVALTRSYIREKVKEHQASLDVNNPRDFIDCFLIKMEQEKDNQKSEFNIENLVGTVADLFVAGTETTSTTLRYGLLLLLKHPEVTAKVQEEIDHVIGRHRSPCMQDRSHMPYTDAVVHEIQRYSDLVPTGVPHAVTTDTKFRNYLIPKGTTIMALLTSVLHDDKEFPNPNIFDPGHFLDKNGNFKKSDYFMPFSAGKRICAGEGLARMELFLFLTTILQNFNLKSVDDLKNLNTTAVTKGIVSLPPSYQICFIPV
Description: Cytochrome P450 inhibition, human liver microsomes. In kind it is in vitro ADME. On the procedure: as §1, §2
In general terms: Liver microsomes are vesicles of endoplasmic reticulum, rich in cytochrome P450 enzymes.

The next series has as its system CYP3A4/5. Kind of series: Cytochrome P450 inhibition, human liver microsomes. In kind it is in vitro ADME. The settings on record: for IC50: read-out: Direct inhibition IC50; for IC50 at 30 min: read-out: Time-dependent inhibition IC50. On the procedure:
as §1, §2

Setting [2] is: with NADPH preincubation, read-out: Time-dependent inhibition IC50.
Where [3] appears, read: without NADPH preincubation, read-out: Time-dependent inhibition IC50.

A word on the hepatocyte CLint: it is the rate of metabolic loss divided by the concentration. Low readings indicate slow turnover, high ones rapid turnover. Usually IC50 stands for the concentration that gives 50% inhibition.

For the molecule `Cc1[nH]c2nc(N)nc(C)c2c1-c1ccc(C#N)c2c1OCO2` [DNDI-6174], the “Hepatocyte predicted in vivo CLplasma” value in series [1] (Mouse) was 17 mL/min/kg. For the same molecule, the hepatocyte CLint at 0.5 µM in series [1] (mouse, cryopreserved hepatocytes) turned out to be 9.7 ± 0.091 µL/min/1e6 cells. The IC50 at CYP1A2 (CYP1A2, read-out: Direct inhibition IC50) was 5.1 µM; on CYP1A2 (setting [2]), 1 µM; at CYP1A2 (setting [3]), 3.4 µM; at CYP2B6 (CYP2B6, read-out: Direct inhibition IC50) it was above 20 µM; at CYP2B6 (setting [2]) it was above 20 µM; at CYP2B6 (setting [3]) it was above 20 µM. Moreover, the IC50 on CYP2C8 (CYP2C8, read-out: Direct inhibition IC50) was above 20 µM; on CYP2C8 (setting [2]) it was 3.2 µM; at CYP2C8 (setting [3]), above 20 µM; in the series on CYP3A4/5 (probe midazolam (1'-hydroxylation), CYP3A4/5, midazolam), above 20 µM; in the series with CYP3A4/5 (probe testosterone (6β-hydroxylation), CYP3A4/5, testosterone), 12.3 µM. In addition, the half-maximal inhibitory concentration (IC50) at 30 min with CYP3A4/5 (probe midazolam (1'-hydroxylation), midazolam, with NADPH preincubation) was 1.9 µM; in the series with CYP3A4/5 (probe midazolam (1'-hydroxylation), midazolam, without NADPH preincubation), above 20 µM; with CYP3A4/5 (probe testosterone (6β-hydroxylation), testosterone, with NADPH preincubation) it was 0.71 µM; with CYP3A4/5 (probe testosterone (6β-hydroxylation), testosterone, without NADPH preincubation), 8 µM.
